Experimental data reported in US20230220047A1, “PEPTIDES FOR TREATMENT OF SEPSIS AND CANCER” (NORWEGIAN UNIVERSITY OF SCIENCE AND TECHNOLOGY (NTNU), priority 2020, published 2023).
“Also recorded” adds a separate entry of the source.

Legend:
[1] = test system: THP-1 WT cells and THP-1 TRAM^CHERRY; assay: Confocal analysis of bacterial bioparticle uptake by THP-1 cells; type: cell-based, human; conditions: 15 μM, 30 min pre-incubation
Procedure: Cells were pre-incubated with Pen or P7-Pen peptides, followed by addition of Alexa Fluor 488-labeled bioparticles for the times indicated (15, 30 or 45 min). Fluorescent bacteria particles were counted by spot-detection in Bitplane Imaris imaging software and used to calculate the number of particles per cell. […] Pre-incubation with 3 μM cytochalasin D (CytoD, and inhibitor of actin polymerization) inhibited uptake of E. coli to a similar extent as P7-Pen.
THP-1 cells, THP-1^cherry cells or human PBMC were seeded in 24-well glass-bottom plates (MatTek Corporation), 125,000 cells/well. The THP-1 cells were differentiated into macrophages with 60 ng/ml PMA for 72 h and thereafter rested for 48 h, whereas the PBMC were used the day after isolation. The P7-penatratin peptide or control peptide was added to the cells 30 min before stimulation at 15 μM concentration. If used, 3 μM cytochalasin D (CytoD) was added simultaneously. […] A spot detection mode in the Bitplan Imaris software was used to define individual phagosomes and cells were counted manually. […] Fluorescence voxel intensity of TRAM^cherry at the phagosome is also presented. Statistical significance was calculated in GraphPad Prism by One-way ANOVA Kruskal-Wallis multiple comparison test. […]

Jurkat cells = assay: Proliferation of Jurkat T cell leukaemia cells; type: cell-based, human; conditions: 15 μM or 20 μM, 48 h
Procedure: Jurkat cells were seeded at 5000 cells/well (as indicated by dotted line) and incubated in medium supplemented with water, penetratin, P7-Pen or P7-N4-Pen. Peptides were included at 15 μM (A) or 20 μM (B). Cells were incubated for 48 hours then counted. […] Results are based on 3 biological replicates, error bars show standard deviation of mean.
SW480 (ATCC CCL-228) and Jurkat (ATCC Clone E6-1; TIB-152) cells were cultured in RPMI 1640 (Sigma-Aldrich, Schnelldorf, Germany) supplemented with 10% heat-inactivated FCS, penicillin/streptomycin (Life Technologies) and 20 mM L-Glutamine. THP-1 cells (ATCC TIB-202) were cultured in RPMI-1640 (high-glucose, ATCC) supplemented with 10% heat inactivated foetal calf serum (FCS), 100 nM penicillin/streptomycin and 5 μM β-mercaptoethanol (Sigma). THP-1 cells were differentiated with 60 ng/ml phorbol 12-myristate 13-acetate (PMA, Sigma) for 72 h, followed by 24 or 48 h in medium without PMA.
The peptides were tested against the SW480 cell line in the presence and absence of LPS.

MyD88 signaling complex = target: T1, MyD88 signaling complex (Homo sapiens, UniProt P51617+Q99836+Q9NWZ3); assay: IRAK immunoprecipitations from LPS-stimulated human monocytes; type: cell-based; conditions: 15 μM, LPS 100 ng/ml
T1 construct: abrogated IRAK1, 2 and 4 recruitment to the MyD88 signaling complex in human monocytes; endogenous in cells; host or cells: primary human monocytes, LPS-stimulated
T1 sequence (Q99836 whole entry): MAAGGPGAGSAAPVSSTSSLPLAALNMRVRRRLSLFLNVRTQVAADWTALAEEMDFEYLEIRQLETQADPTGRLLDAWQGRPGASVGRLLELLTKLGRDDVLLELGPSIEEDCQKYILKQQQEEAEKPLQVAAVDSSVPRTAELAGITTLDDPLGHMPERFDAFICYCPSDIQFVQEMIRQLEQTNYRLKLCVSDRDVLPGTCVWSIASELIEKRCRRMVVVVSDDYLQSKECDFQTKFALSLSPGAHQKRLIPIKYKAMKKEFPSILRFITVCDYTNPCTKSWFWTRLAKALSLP
T1 sequence (P51617 whole entry): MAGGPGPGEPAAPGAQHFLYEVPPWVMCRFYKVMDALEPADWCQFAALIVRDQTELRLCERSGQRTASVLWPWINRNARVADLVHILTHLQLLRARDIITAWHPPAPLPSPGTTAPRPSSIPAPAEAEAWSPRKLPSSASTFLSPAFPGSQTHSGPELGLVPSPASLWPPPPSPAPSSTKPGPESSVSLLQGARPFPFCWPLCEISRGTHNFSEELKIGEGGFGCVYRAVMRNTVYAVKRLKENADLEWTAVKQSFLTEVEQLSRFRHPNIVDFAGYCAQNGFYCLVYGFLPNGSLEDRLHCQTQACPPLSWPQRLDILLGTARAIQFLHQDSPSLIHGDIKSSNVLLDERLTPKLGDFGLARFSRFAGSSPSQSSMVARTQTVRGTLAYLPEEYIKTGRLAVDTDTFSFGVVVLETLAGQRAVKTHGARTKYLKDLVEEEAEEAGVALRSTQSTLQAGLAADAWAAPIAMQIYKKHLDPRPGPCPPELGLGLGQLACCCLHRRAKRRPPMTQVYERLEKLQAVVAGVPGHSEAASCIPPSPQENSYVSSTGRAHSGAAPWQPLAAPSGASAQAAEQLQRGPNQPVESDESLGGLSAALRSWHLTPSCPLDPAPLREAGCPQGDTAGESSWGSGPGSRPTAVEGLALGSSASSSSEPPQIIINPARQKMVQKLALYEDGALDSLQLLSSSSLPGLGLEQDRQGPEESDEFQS
T1 sequence (Q9NWZ3 whole entry): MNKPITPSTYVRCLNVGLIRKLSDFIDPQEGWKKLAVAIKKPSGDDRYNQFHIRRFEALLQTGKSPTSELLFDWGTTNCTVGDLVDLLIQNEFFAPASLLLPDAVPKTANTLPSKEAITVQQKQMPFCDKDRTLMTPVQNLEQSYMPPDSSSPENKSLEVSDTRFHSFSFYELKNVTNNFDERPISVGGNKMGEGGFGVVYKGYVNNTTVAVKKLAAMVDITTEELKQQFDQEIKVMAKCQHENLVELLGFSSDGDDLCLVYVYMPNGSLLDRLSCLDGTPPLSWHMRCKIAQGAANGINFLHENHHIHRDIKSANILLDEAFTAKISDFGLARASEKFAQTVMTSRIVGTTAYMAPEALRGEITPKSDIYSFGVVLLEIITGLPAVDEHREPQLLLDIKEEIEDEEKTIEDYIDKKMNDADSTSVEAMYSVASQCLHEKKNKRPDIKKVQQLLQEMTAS
Procedure: Cell were pre-treated with Pen or P7-Pen (15 μM) for 30 min before addition of LPS (100 ng/ml) for specified time periods. Precipitations were performed using sheep anti-IRAK4 (A), anti-IRAK1 (B) and anti-IRAK2 (C) polyclonal antibodies covalently bound to magnetic beads, followed by Western blot analysis of lysates and precipitated proteins.
Pre-treatment of monocytes with P7-Pen abrogated recruitment of all tested IRAKs (1,2 and 4) to MyD88 (FIG. 28). This could be achieved by the peptide disrupting the Mal-MyD88 interaction, Mal-IRAK interactions or MyD88-IRAK interactions. Since IL-1R-initiated signalling through the Myddosome complex is not inhibited by the P7 peptide (see above), it is most likely that P7 interferes with Mal-IRAK interactions or the Mal-MyD88 interaction, rather than MyD88-IRAK interactions (since Mal is not involved in IL-1R signaling).

Ac-ITVYASVTLTGRQIKIWFQNRRMKWKK-NH2 [Peptide P7-Pen]
uptake of S. aureus bioparticles ([1]; THP-1 TRAM^CHERRY): inhibited
uptake of E. coli particles ([1]; THP-1 WT and THP-1 TRAM^CHERRY): inhibited
effect on proliferation of Jurkat cells (Jurkat cells): possible anti-proliferative effect; also recorded: clear anti-proliferative effect
recruitment of IRAKs (1, 2 and 4) to MyD88 (MyD88 signaling complex): abrogated
